Structures can show the parent of a compound that is named as a salt. Where two headings read alike, the source gives them in different places.
Experiments:
[1] = test system: mechanical allodynia after chronic constriction injury (CCI) to the sciatic nerve; experiment: Mechanical allodynia by response to von Frey fibers, rat chronic constriction injury (CCI) model; type: in vivo, male Sprague-Dawley rats; conditions: 2 hr post dosing
Excerpt: Chronic Constriction Injury: Heat and cold allodynia responses as well as mechanical allodynia sensations can be evaluated as described below in rats having a chronic constriction injury (CCI). A unilateral mononeuropathy is produced in rats using the chronic constriction injury model described in Bennett et al., Pain (1988) 33:87-107. CCI is produced in anesthetized rats as follows. The lateral aspect of each rat's hind limb is shaved and scrubbed with Nolvasan. Using aseptic techniques, an incision is made on the lateral aspect of the hind limb at the mid-thigh level. The biceps femoris is bluntly dissected to expose the sciatic nerve. On the right hind limb of each rat, four loosely tied ligatures (for example, Chromic gut 4.0; Ethicon, Johnson and Johnson, Somerville, N.J.) are made around the sciatic nerve approximately 1-2 mm apart. On the left side of each rat, an identical dissection is performed except that the sciatic nerve is not ligated (sham). The muscle is closed with a continuous suture pattern with, e.g., 4-0 Vicryl (Johnson and Johnson, Somerville, N.J.) and the overlying skin is closed with wound clips. The rats are ear-tagged for identification purposes and returned to animal housing.
To induce allodynia, male Sprague-Dawley rats underwent chronic constriction injury (CCI) to the sciatic nerve as described by Bennett and Xie, Pain 1988; 33(1):87-107. The plantar surface of the hind paws was stimulated with von Frey filaments (Stoelting) to induce a withdrawal response by blinded personnel. The bending force of fiber required to induce a 50% withdrawal response was calculated following CCI surgery (pre-dosing baseline). N=5-6 allodynic rats received a single intraperitoneal administration of test compound or vehicle. Two hours post-dosing, 50% paw withdrawal threshold was determined again by blinded testers using von Frey filaments. The change in 50% withdrawal threshold relative to pre-dosing baseline is reported in Table 2 for various substituted pyrazolo[1,5-a]pyridine compounds of the invention.

[2] = target: phosphodiesterase (PDE) enzyme derived from bovine brain; experiment: Inhibition of PDE (PDELight kit, cAMP substrate); type: biochemical; conditions: PDE from brain extract, cAMP as substrate
Experimental: In a 96-well plate, phosphodiesterase (PDE) enzyme (0.5-1 mU/well) derived from bovine brain (Sigma) was combined with 5 uM cAMP substrate (Sigma). Test compounds (0-200 uM) or vehicle (0.5% DMSO) were added to the enzyme/substrate and incubated for 1 hour. Using a PDELight® kit (Cambrex), the amount of AMP produced in the reaction from the hydrolysis of cAMP was quantified using PDELight AMP Detection Reagent which converts the AMP directly to ATP. The assay uses luciferase, which catalyses the formation of light from the newly formed ATP and luciferin. The luminescence was read on a Victor Light 1420 luminometer. IC50 calculations were plotted using a nonlinear regression curve fit.

[3] = test system: TNF-α production in LPS-stimulated human peripheral blood mononuclear cells; experiment: Inhibition of LPS-stimulated TNF-α release from PBMCs; type: cell-based; conditions: PBMC
Experimental: (§1) IC50 values were determined for representative compounds of the invention based upon their ability to inhibit LPS-induced cytokine production in human peripheral blood mononuclear cells. Human PBMCs (peripheral blood mononuclear cells) were isolated over a Ficoll gradient from buffy coats obtained from the local Red Cross. 10^6 PBMC cells/well were seeded in 24-well tissue culture plates in RPMI 1640 medium supplemented with 10% human serum, hepes buffer and sodium pyruvate. The cells were treated with 0.1% DMSO (vehicle) or test compounds (1, 10, and 100 uM) 30 minutes prior to activation with LPS (lipopolysaccharide) (E. Coli) at 10 ng/mL. 6-10 hours post LPS stimulation the culture supernatants were collected and levels of cytokines TNF-α and IL-1β were quantified by ELISA (R&D Systems) and/or Luminex (Linco Diagnostics). IC50 calculations were plotted using a nonlinear regression curve fit for exemplary substituted pyrazolo[1,5-a]pyridine compounds of the invention; results are provided in Table 2.

[4] = test system: IL-1β production in LPS-stimulated human peripheral blood mononuclear cells; experiment: Inhibition of LPS-stimulated IL-1β release from PBMCs; type: cell-based; conditions: PBMC, LPS-stimulated cytokine release from PBMCs
Experimental: as §1

[5] = LPS-stimulated cytokine release from PBMCs, read-out: TNF-α (IC50)
[6] = less than or equal to about 50 μM, PBMCs, read-out: IC50, LPS-induced cytokine production (cytokine not specified)

| SMILES | Mechanical Allodynia ΔWT (change from pre-dosing 50% withdrawal threshold) ([1]; 10 mg/kg IP) | IC50 [2] [µM] | IC50 [3, 5] [µM] | IC50 [3, 6] [µM] | IC50 [4] [µM] | Mechanical Allodynia ΔWT (change from pre-dosing 50% withdrawal threshold) ([1]; 20 mg/kg IP) |
| --- | --- | --- | --- | --- | --- | --- |
| CC(C)c1nn2ccccc2c1C(=O)c1ccc(Cl)cc1 [Compound 1007, (4-chlorophenyl)(2-isopropylpyrazolo[1,5-a]pyridin-3-yl)methanone] | 0.92 grams | > 200 | 13 | ≤ 50 | 29.7 | – |
| COc1ccc(C(=O)c2c(C(C)C)nn3ccccc23)cc1 [Compound 1008, (2-isopropylpyrazolo[1,5-a]pyridin-3-yl)(4-methoxyphenyl)methanone] | 0.84 grams | 5.8 | 50 | ≤ 50 | > 100 | – |
| CC(C)c1nn2ccccc2c1C(=O)CN [Compound 1009, 2-amino-1-(2-isopropylpyrazolo[1,5-a]pyridin-3-yl)ethanone] | 1.15 grams | > 200 | 25 | ≤ 50 | 99 | – |
| CC(C)C(=NOC(N)=O)c1c(-c2ccccc2)nn2ccccc12 [Compound 1017, 2-methyl-1-(2-phenylpyrazolo[1,5-a]pyridin-3-yl)propan-1-one O-carbamoyl oxime] | 0.91 grams | > 200 | – | – | – | – |
| COc1ccc(-c2nn3ccccc3c2C(=O)C(C)C)cc1 [Compound 1021, 1-(2-(4-methoxyphenyl)pyrazolo[1,5-a]pyridin-3-yl)-2-methylpropan-1-one] | 0.45 grams | > 200 | – | – | – | – |
| COc1ccc(-c2nn3ccccc3c2C(=NO)C(C)C)cc1 [Compound 1022, 1-(2-(4-methoxyphenyl)pyrazolo[1,5-a]pyridin-3-yl)-2-methylpropan-1-one oxime] | 0 grams | 23.9 | – | – | – | – |
| COc1ccc(-c2nn3ccccc3c2C(=NOC(N)=O)C(C)C)cc1 [Compound 1023, 1-(2-(4-methoxyphenyl)pyrazolo[1,5-a]pyridin-3-yl)-2-methylpropan-1-one O-carbamoyl oxime] | – | 156 | – | – | – | – |
| CC(C)C(=O)c1c(-c2ccc(Cl)cc2)nn2ccccc12 [Compound 1024, 1-(2-(4-chlorophenyl)pyrazolo[1,5-a]pyridin-3-yl)-2-methylpropan-1-one] | 0.43 grams | 18.2 | – | ≤ 50 | – | – |
| CC(C)C(=NO)c1c(-c2ccc(Cl)cc2)nn2ccccc12 [Compound 1025, 1-(2-(4-chlorophenyl)pyrazolo[1,5-a]pyridin-3-yl)-2-methylpropan-1-one oxime] | 0.81 grams | 23 | – | – | – | – |
| CC(C)C(=NOC(N)=O)c1c(-c2ccc(Cl)cc2)nn2ccccc12 [Compound 1026, 1-(2-(4-chlorophenyl)pyrazolo[1,5-a]pyridin-3-yl)-2-methylpropan-1-one O-carbamoyl oxime] | 1.14 grams | 27.7 | – | – | – | – |
| CC(C)c1nn2ccccc2c1C(=O)C(C)N1CCOCC1 (centres unmarked) [Compound 1034, 1-(2-isopropylpyrazolo[1,5-a]pyridin-3-yl)-2-morpholinopropan-1-one hydrochloride] | 10 mg/kg: 1.71 grams | 43.3 | – | – | – | 20 mg/kg: 0.54 grams |
| CC(C)c1nn2ccccc2c1C(=O)C(C)N1CCN(C)CC1 (centres unmarked) [Compound 1035, 1-(2-isopropylpyrazolo[1,5-a]pyridin-3-yl)-2-(4-methylpiperazin-1-yl)propan-1-one hydrochloride] | 0 grams | 198 | – | – | – | – |
| CC(C)c1nn2ccccc2c1C(=O)C(C)N1CCCCC1 (centres unmarked) [Compound 1036, 1-(2-isopropylpyrazolo[1,5-a]pyridin-3-yl)-2-(piperidin-1-yl)propan-1-one hydrochloride] | 0 grams | > 200 | – | – | – | – |
| CC(C)c1nn2ccccc2c1C(=O)C(C)N1CCNCC1 (centres unmarked) [Compound 1037, 1-(2-isopropylpyrazolo[1,5-a]pyridin-3-yl)-2-(piperazin-1-yl)propan-1-one hydrochloride] | 0 grams | > 200 | – | – | – | – |
| CC(C)c1nn2ccccc2c1C(=O)c1ncccc1Cl [Compound 1038, (3-chloropyridin-2-yl)(2-isopropylpyrazolo[1,5-a]pyridin-3-yl)methanone] | 0.32 grams | 26.4 | – | – | – | – |
| CC(C)c1nn2ccccc2c1C(=O)C(N)c1ccccc1 (centres unmarked) [Compound 1039, 2-amino-1-(2-isopropylpyrazolo[1,5-a]pyridin-3-yl)-2-phenylethanone] | 0.05 grams | 8.2 | – | – | – | – |
| CCC(=O)c1c(CC)nn2ccccc12 [Compound 1040, 1-(2-ethylpyrazolo[1,5-a]pyridin-3-yl)propan-1-one] | 0.12 grams | 27.1 | – | – | – | – |
| CC(C)c1nn2ccccc2c1C(=O)C(C)N(C)Cc1ccccc1 (centres unmarked) [Compound 1041, 2-(benzyl(methyl)amino)-1-(2-isopropylpyrazolo[1,5-a]pyridin-3-yl)propan-1-one] | 0.22 grams | 21.5 | – | – | – | – |
| CNC(C)C(=O)c1c(C(C)C)nn2ccccc12 (centres unmarked) [Compound 1042, 1-(2-isopropylpyrazolo[1,5-a]pyridin-3-yl)-2-(methylamino)propan-1-one hydrochloride] | 10 mg/kg: 0.37 grams | 31.9 | – | – | – | 20 mg/kg: 0.22 grams |
| CC(C)c1nn2ccccc2c1C(NC1CC1)C(C)C (centres unmarked) [Compound 1044, N-(1-(2-isopropylpyrazolo[1,5-a]pyridin-3-yl)-2-methylpropyl)cyclopropanamine] | 0.08 grams | > 200 | – | – | – | – |
| CC(NC1CC1)C(=O)c1c(C(C)C)nn2ccccc12 (centres unmarked) [Compound 1045, 2-(cyclopropylamino)-1-(2-isopropylpyrazolo[1,5-a]pyridin-3-yl)propan-1-one hydrochloride] | 0 grams | 61.1 | – | – | – | – |
| CC(C)c1nn2ccccc2c1C(NCC1CC1)C(C)C (centres unmarked) [Compound 1048, N-(cyclopropylmethyl)-1-(2-isopropylpyrazolo[1,5-a]pyridin-3-yl)-2-methylpropan-1-amine hydrochloride] | 0 grams | > 200 | – | – | – | – |
| CC(C)C(=O)c1c(C(C)(C)O)nn2ccccc12 [compound 1003, 1-(2-(2-hydroxypropan-2-yl)pyrazolo[1,5-a]pyridin-3-yl)-2-methylpropan-1-one] | 0 grams | > 100 | – | – | – | – |
| COc1ccc2c(C(=O)C(C)C)c(C(C)C)nn2c1 [compound 1005, 1-(2-isopropyl-6-methoxypyrazolo[1,5-a]pyridin-3-yl)-2-methylpropan-1-one] | 0.17 grams | 59.5 | 76 | – | – | – |
| CC(C)=Cc1c(C(C)C)nn2ccccc12 [compound 1049, 2-isopropyl-3-(2-methylprop-1-enyl)pyrazolo[1,5-a]pyridine] | 0 grams | 92.5 | – | – | – | – |
